According to US6706663B2, “Herbicidal 3-heterocyclic substituted benzisothiazole and benzisoxazole compounds” (Wyeth, priority 2000, dated 2004):

What was measured:
[1] = tested on: ZEAMX (Corn, Field); assay: Postemergence herbicidal evaluation; type: in vivo, Zea mays, L.; details: for ZEAMX herbicidal rating: postemergence
Method in brief: (§1)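 Seedlings grown about two weeks in flats, sprayed, then kept under standard greenhouse care. Rated visually 4–5 weeks after treatment on a 0–9 scale (stand, vigour, malformation, size, chlorosis, overall appearance) relative to untreated control; repeat tests averaged.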

[2] = tested on: ORYSAT (Rice, Tebonnet); assay: Flooded paddy, post-transplant rice tolerance; type: in vivo, Oryza sativa, (L.) Tebonnet; details: flooded paddy, post-transplant rice, rated 3-4 weeks after treatment, 0-9 rating scale
Method in brief: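 Steps: transplant two ten-day-old seedlings into silt loam; flood to 1.5-3 cm above soil; apply herbicide post-transplant; maintain water on greenhouse benches; rate stand, vigor, malformation, size and chlorosis on a 0-9 visual scale versus control.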

[3] = tested on: ABUTH (Abutilon theophrasti); assay: Postemergence herbicidal evaluation; type: in vivo, Medic.; details: for ABUTH herbicidal rating: postemergence
Method in brief: as §1

[4] = tested on: ECHCG (Echinochloa crus-galli); assay: Preemergence herbicidal evaluation; type: in vivo, (L.) Beau; details: preemergence, rated 4-5 weeks after treatment
Method in brief: (§2)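 Visual 0–9 rating versus control (stand, vigor, malformation, size, chlorosis, overall appearance), scored four to five weeks post-treatment. Preemergence spray of aqueous acetone solution onto freshly seeded soil cups; plants grown under conventional greenhouse care.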

[5] = tested on: SETVI (Setaria viridis); assay: Preemergence herbicidal evaluation; type: in vivo, (L.) Beau; details: preemergence, rated 4-5 weeks after treatment
Method in brief: as §2

[6] = tested on: GLXMAW (Soybean, Williams); assay: Postemergence herbicidal evaluation; type: in vivo, Glycine max, (L.) Merr. cv Williams; details: for GLXMAW herbicidal rating: postemergence
Method in brief: as §1

[7] = tested on: SETVI (Setaria viridis); assay: Postemergence herbicidal evaluation; type: in vivo, (L.) Beau; details: for SETVI herbicidal rating: postemergence
Method in brief: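 ~2-wk seedlings; spray 0.0040–1.000 kg/ha in 50/50 acetone/water + 0.5% TWEEN 20, 40 psi nozzle. Greenhouse hold; visual 0–9 rating vs control at 4–5 wk; multiple tests averaged.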

[8] = tested on: IPOHE (Ipomoea hederacea); assay: Preemergence herbicidal evaluation; type: in vivo, (L.) Jacq.; details: preemergence, rated 4-5 weeks after treatment
[9] = tested on: MOOVA (Monochoria vaginalis); assay: Flooded paddy, preemergence weed control; type: in vivo, Presl.; details: rated 3-4 weeks after treatment, 0-9 rating scale
Method in brief: (§3)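 Visual 0–9 ratings versus controls scored stand, vigor, malformation, size, chlorosis and overall appearance. Plants grew from seeds or propagating organs sown 0.5 cm deep in silt loam, with water held 1.5–3 cm above the soil for the whole test under greenhouse care.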

[10] = tested on: AMBEL (Ambrosia artemisifolia); assay: Preemergence herbicidal evaluation; type: in vivo, L.; details: preemergence, rated 4-5 weeks after treatment
Method in brief: as §2

[11] = tested on: CHEAL (Chenopodium album); assay: Preemergence herbicidal evaluation; type: in vivo, L.; details: preemergence, rated 4-5 weeks after treatment
Method in brief: as §2

[12] = tested on: CASOB (Cassia obtusifolia); assay: Preemergence herbicidal evaluation; type: in vivo, L.; details: preemergence, rated 4-5 weeks after treatment
Method in brief: as §2

[13] = tested on: IPOHE (Ipomoea hederacea); assay: Postemergence herbicidal evaluation; type: in vivo, (L.) Jacq.; details: for IPOHE herbicidal rating: postemergence
Method in brief: as §1

[14] = tested on: ECHCG (Echinochloa crus-galli); assay: Postemergence herbicidal evaluation; type: in vivo, (L.) Beau; details: for ECHCG herbicidal rating: postemergence
Method in brief: as §1

[15] = tested on: ORYSAT (Rice, Tebonnet); assay: Postemergence herbicidal evaluation; type: in vivo, Oryza sativa, (L.) Tebonnet; details: for ORYSAT herbicidal rating: postemergence
Method in brief: as §1

[16] = tested on: SAGPY (Sagittaria pygmaea); assay: Flooded paddy, preemergence weed control; type: in vivo, L.; details: rated 3-4 weeks after treatment, 0-9 rating scale
Method in brief: as §3

[17] = tested on: ECHORC (Echinochloa oryzoides); assay: Flooded paddy, preemergence weed control; type: in vivo, Echinochloa oryzoides (Ard.) Fritsch.; details: rated 3-4 weeks after treatment, 0-9 rating scale
Method in brief: as §3

[18] = tested on: GALAP (Galium aparine); assay: Postemergence herbicidal evaluation; type: in vivo; details: for GALAP herbicidal rating: postemergence
Method in brief: as §1

[19] = tested on: CYPIR (Cyperus iria); assay: Flooded paddy, preemergence weed control; type: in vivo; details: rated 3-4 weeks after treatment, 0-9 rating scale
Method in brief: as §3

[20] = tested on: ORYSAT (Rice, Tebonnet); assay: Preemergence herbicidal evaluation; type: in vivo, Oryza sativa, (L.) Tebonnet; details: preemergence, rated 4-5 weeks after treatment

What does the source list for `Cn1c(C(F)(F)F)cc(=O)n(-c2ccc3snc(C4OCC(CS(C)(=O)=O)O4)c3c2)c1=O` (single isomer, unassigned) [Compound 86, 1-methyl-3-[3-[4-[(methylsulfonyl)methyl]-1,3-dioxolan-2-yl]-1,2-benzisothiazol-5-yl]-6-(trifluoromethyl)uracil]?
ZEAMX herbicidal rating ([1]; rate 0.0320 kg/ha): 4.0; ZEAMX herbicidal rating ([1]; rate 0.0620 kg/ha): 4.0; ORYSAT herbicidal rating (transplanted rice tolerance) ([2]; rate 0.0320 kg/ha): 0.0; ORYSAT herbicidal rating (transplanted rice tolerance) ([2]; rate 0.1250 kg/ha): 5.0; ABUTH herbicidal rating ([3]; rate 0.0320 kg/ha): 9.0; ABUTH herbicidal rating ([3]; rate 0.0620 kg/ha): 9.0; Preemergence herbicidal rating ECHCG ([4]; rate 0.0620 kg/ha): 7.5; Preemergence herbicidal rating ECHCG ([4]; rate 0.1250 kg/ha): 9.0; Preemergence herbicidal rating ECHCG ([4]; rate 0.2500 kg/ha): 9.0; Preemergence herbicidal rating SETVI ([5]; rate 0.0620 kg/ha): 7.5; Preemergence herbicidal rating SETVI ([5]; rate 0.1250 kg/ha): 9.0; Preemergence herbicidal rating SETVI ([5]; rate 0.2500 kg/ha): 9.0; GLXMAW herbicidal rating ([6]; rate 0.0320 kg/ha): 9.0; GLXMAW herbicidal rating ([6]; rate 0.0620 kg/ha): 9.0; SETVI herbicidal rating ([7]; rate 0.0320 kg/ha): 8.0; SETVI herbicidal rating ([7]; rate 0.0620 kg/ha): 9.0; Preemergence herbicidal rating IPOHE ([8]; rate 0.0620 kg/ha): 4.0; Preemergence herbicidal rating IPOHE ([8]; rate 0.1250 kg/ha): 9.0; Preemergence herbicidal rating IPOHE ([8]; rate 0.2500 kg/ha): 9.0; MOOVA herbicidal rating ([9]; rate 0.0320 kg/ha): 5.0; MOOVA herbicidal rating ([9]; rate 0.1250 kg/ha): 9.0; Preemergence herbicidal rating AMBEL ([10]; rate 0.0620 kg/ha): 9.0; Preemergence herbicidal rating AMBEL ([10]; rate 0.1250 kg/ha): 9.0; Preemergence herbicidal rating AMBEL ([10]; rate 0.2500 kg/ha): 9.0; Preemergence herbicidal rating CHEAL ([11]; rate 0.0620 kg/ha): 9.0; Preemergence herbicidal rating CHEAL ([11]; rate 0.1250 kg/ha): 9.0; Preemergence herbicidal rating CHEAL ([11]; rate 0.2500 kg/ha): 9.0; Preemergence herbicidal rating CASOB ([12]; rate 0.0620 kg/ha): 4.0; Preemergence herbicidal rating CASOB ([12]; rate 0.1250 kg/ha): 9.0; Preemergence herbicidal rating CASOB ([12]; rate 0.2500 kg/ha): 9.0; IPOHE herbicidal rating ([13]; rate 0.0320 kg/ha): 9.0; IPOHE herbicidal rating ([13]; rate 0.0620 kg/ha): 9.0; ECHCG herbicidal rating ([14]; rate 0.0320 kg/ha): 4.0; ECHCG herbicidal rating ([14]; rate 0.0620 kg/ha): 5.0; ORYSAT herbicidal rating ([15]; rate 0.0320 kg/ha): 4.0; ORYSAT herbicidal rating ([15]; rate 0.0620 kg/ha): 5.5; SAGPY herbicidal rating ([16]; rate 0.0320 kg/ha): 0.0; SAGPY herbicidal rating ([16]; rate 0.1250 kg/ha): 0.0; ECHORC herbicidal rating ([17]; rate 0.0320 kg/ha): 0.0; ECHORC herbicidal rating ([17]; rate 0.1250 kg/ha): 3.0; GALAP herbicidal rating ([18]; rate 0.0320 kg/ha): 9.0; GALAP herbicidal rating ([18]; rate 0.0620 kg/ha): 9.0; CYPIR herbicidal rating ([19]; rate 0.0320 kg/ha): 0.0; CYPIR herbicidal rating ([19]; rate 0.1250 kg/ha): 0.0; Preemergence herbicidal rating ORYSAT ([20]; rate 0.0620 kg/ha): 5.0; Preemergence herbicidal rating ORYSAT ([20]; rate 0.1250 kg/ha): 7.0; Preemergence herbicidal rating ORYSAT ([20]; rate 0.2500 kg/ha): 9.0

Which results are given for `Cn1c(C(F)(F)F)cc(=O)n(-c2ccc3snc(C4OCC(C)(C)CO4)c3c2)c1=O` [Compound 36, 3-[3(5,5-dimethyl-m-dioxan-2-yl)-1,2-benzisothiazol-5-yl]-1-methyl-6-(trifluoromethyl)uracil]?
Postemergence herbicidal rating, ZEAMX ([1]; rate 0.0320 kg/ha): 5.0; Postemergence herbicidal rating, ZEAMX ([1]; rate 0.0620 kg/ha): 6.0; herbicidal rating, ORYSAT (rice tolerance) ([2]; rate 0.0080 kg/ha): 5.0; herbicidal rating, ORYSAT (rice tolerance) ([2]; rate 0.0320 kg/ha): 7.5; herbicidal rating, ORYSAT (rice tolerance) ([2]; rate 0.1250 kg/ha): 9.0; Postemergence herbicidal rating, ABUTH ([3]; rate 0.0320 kg/ha): 9.0; Postemergence herbicidal rating, ABUTH ([3]; rate 0.0620 kg/ha): 9.0; ECHCG preemergence herbicidal rating ([4]; Rate 0.0620 kg/ha): 9.0; ECHCG preemergence herbicidal rating ([4]; Rate 0.1250 kg/ha): 9.0; ECHCG preemergence herbicidal rating ([4]; Rate 0.2500 kg/ha): 9.0; SETVI preemergence herbicidal rating ([5]; Rate 0.0620 kg/ha): 9.0; SETVI preemergence herbicidal rating ([5]; Rate 0.1250 kg/ha): 9.0; SETVI preemergence herbicidal rating ([5]; Rate 0.2500 kg/ha): 9.0; Postemergence herbicidal rating, GLXMAW ([6]; rate 0.0320 kg/ha): 7.5; Postemergence herbicidal rating, GLXMAW ([6]; rate 0.0620 kg/ha): 9.0; Postemergence herbicidal rating, SETVI ([7]; rate 0.0320 kg/ha): 4.0; Postemergence herbicidal rating, SETVI ([7]; rate 0.0620 kg/ha): 9.0; IPOHE preemergence herbicidal rating ([8]; Rate 0.0620 kg/ha): 3.5; IPOHE preemergence herbicidal rating ([8]; Rate 0.1250 kg/ha): 6.5; IPOHE preemergence herbicidal rating ([8]; Rate 0.2500 kg/ha): 9.0; herbicidal rating, MOOVA ([9]; rate 0.0080 kg/ha): 9.0; herbicidal rating, MOOVA ([9]; rate 0.0320 kg/ha): 9.0; AMBEL preemergence herbicidal rating ([10]; Rate 0.0620 kg/ha): 9.0; AMBEL preemergence herbicidal rating ([10]; Rate 0.1250 kg/ha): 9.0; AMBEL preemergence herbicidal rating ([10]; Rate 0.2500 kg/ha): 9.0; CHEAL preemergence herbicidal rating ([11]; Rate 0.0620 kg/ha): 9.0; CHEAL preemergence herbicidal rating ([11]; Rate 0.1250 kg/ha): 9.0; CHEAL preemergence herbicidal rating ([11]; Rate 0.2500 kg/ha): 9.0; CASOB preemergence herbicidal rating ([12]; Rate 0.0620 kg/ha): 5.0; CASOB preemergence herbicidal rating ([12]; Rate 0.1250 kg/ha): 9.0; CASOB preemergence herbicidal rating ([12]; Rate 0.2500 kg/ha): 9.0; Postemergence herbicidal rating, IPOHE ([13]; rate 0.0320 kg/ha): 9.0; Postemergence herbicidal rating, IPOHE ([13]; rate 0.0620 kg/ha): 9.0; Postemergence herbicidal rating, ECHCG ([14]; rate 0.0320 kg/ha): 1.0; Postemergence herbicidal rating, ECHCG ([14]; rate 0.0620 kg/ha): 3.0; Postemergence herbicidal rating, ORYSAT ([15]; rate 0.0320 kg/ha): 4.5; Postemergence herbicidal rating, ORYSAT ([15]; rate 0.0620 kg/ha): 7.0; herbicidal rating, SAGPY ([16]; rate 0.0080 kg/ha): 0.0; herbicidal rating, SAGPY ([16]; rate 0.0320 kg/ha): 3.5; herbicidal rating, SAGPY ([16]; rate 0.1250 kg/ha): 9.0; herbicidal rating, ECHORC ([17]; rate 0.0080 kg/ha): 5.0; herbicidal rating, ECHORC ([17]; rate 0.0320 kg/ha): 8.5; herbicidal rating, ECHORC ([17]; rate 0.1250 kg/ha): 9.0; Postemergence herbicidal rating, GALAP ([18]; rate 0.0320 kg/ha): 4.0; Postemergence herbicidal rating, GALAP ([18]; rate 0.0620 kg/ha): 5.0; herbicidal rating, CYPIR ([19]; rate 0.0080 kg/ha): 0.0; herbicidal rating, CYPIR ([19]; rate 0.0320 kg/ha): 9.0; herbicidal rating, CYPIR ([19]; rate 0.1250 kg/ha): 9.0; ORYSAT preemergence herbicidal rating ([20]; Rate 0.0620 kg/ha): 7.5; ORYSAT preemergence herbicidal rating ([20]; Rate 0.1250 kg/ha): 9.0; ORYSAT preemergence herbicidal rating ([20]; Rate 0.2500 kg/ha): 9.0
